Experiments:
IL-1ra = IL-1ra secretion from purified human monocytes; type: cell-based; design: key: NE: No effect; INHIB: Inhibition; STIM: Stimulation; IC40: 40% Inhibitory Concentration; EC50: 50% Effective Concentration; TC: Tolerated Concentration; IA: Interferes with Assay
Method: This assay determines the effect of test compounds on the secretion of IL-1ra from purified human monocytes. Compounds are tested for their ability to downregulate or upregulate the production of IL-1ra in unstimulated monocytes and in activated monocytes. Test compounds are incubated for sixteen hours with purified human monocytes at four dilutions over a range of three log10 concentrations. Where appropriate, lipopolysaccharide (LPS) is used to stimulate the monocytes.
The level of IL-1ra in the resultant supernatants is quantitated in a solid phase Enzyme-linked Immunoassay (EIA) performed in a 96 well format. IL-1ra present in the samples is captured by a specific monoclonal antibody immobilized on the well, and probed with an anti-IL-1ra polyclonal antibody. A second antibody conjugated to horseradish peroxidase is then added, followed by an appropriate substrate. The levels of IL-1ra are determined by interpolation of the resultant color change in the substrate from a standard curve. […]
This assay determines the effect of test compounds on the secretion of IL-1ra from purified human monocytes. […] The level of IL-1ra in the resultant supernatants is quantitated in a solid phase Enzyme-linked Immunoassay (EIA) performed in a 96 well format. […] The levels of IL-1ra are determined by interpolation of the resultant color change in the substrate from a standard curve. […]

peptidoleukotrienes = test: Peptidoleukotriene production by purified human monocytes; type: cell-based; design: key: NE: No effect; INHIB: Inhibition; STIM: Stimulation; IC40: 40% Inhibitory Concentration; EC50: 50% Effective Concentration; TC: Tolerated Concentration; IA: Interferes with Assay
Method: This procedure measures the ability of test compounds to modulate the amount of peptidoleukotrienes produced by purified human monocytes. Compounds are tested for their ability to downregulate the secretion of peptidoleukotrienes from activated monocytes, or upregulate secretion of peptidoleukotrienes from unstimulated monocytes. Test compounds are incubated for ninety minutes with purified human monocytes at four dilutions over a range of three log10 concentrations. Where appropriate, zymosan is used to stimulate the monocytes.
The level of peptidoleukotrienes in the resultant supernatants is quantitated by immunoassay performed in a 96 well format. Peptidoleukotriene levels modulated by unknown compounds are determined by interpolation from a standard curve. All compounds are tested in duplicate with controls and standards.

CCCCCCCCCCCCCC/C=C\CC[C@@H]1OC(=O)C(O)=C1O [(S)-3,4-Dihydroxy-5-[(Z)-3-octadecenyl]-2(5H)-furanone]
NE: EFFECT on IL1ra (IL-1ra; STIMULATED) | EFFECT on IL1ra (IL-1ra; UNSTIMULATED) | EFFECT on PEPTIDOLEUKOTRIENES (peptidoleukotrienes; STIMULATED) | EFFECT on PEPTIDOLEUKOTRIENES (peptidoleukotrienes; UNSTIMULATED)
